# How the values were obtained:
# Format in all cases: functional
# [1] = system: Mycobacterium tuberculosis; experiment: Ratio of MIC for compound to linezolid for extensive drug-resistant Mycobacterium tuberculosis
# [2] = system: Mycobacterium tuberculosis; experiment: Ratio of MIC for compound to linezolid for multidrug-resistant Mycobacterium tuberculosis
# [3] = system: Mycobacterium tuberculosis; experiment: Antitubercular activity against extensive drug-resistant Mycobacterium tuberculosis clinical isolate 7 assessed as growth inhibition by microdilution method
# [4] = system: Mycobacterium tuberculosis; experiment: Antitubercular activity against extensive drug-resistant Mycobacterium tuberculosis clinical isolate 6 assessed as growth inhibition by microdilution method
# [5] = system: Mycobacterium tuberculosis; experiment: Antitubercular activity against extensive drug-resistant Mycobacterium tuberculosis clinical isolate 5 assessed as growth inhibition by microdilution method
# [6] = system: Mycobacterium tuberculosis; experiment: Antitubercular activity against extensive drug-resistant Mycobacterium tuberculosis clinical isolate 4 assessed as growth inhibition by microdilution method
# [7] = system: Mycobacterium tuberculosis; experiment: Antitubercular activity against multidrug-resistant Mycobacterium tuberculosis clinical isolate 3 assessed as growth inhibition by microdilution method
# [8] = system: Mycobacterium tuberculosis; experiment: Antitubercular activity against multidrug-resistant Mycobacterium tuberculosis clinical isolate 2 assessed as growth inhibition by microdilution method
# [9] = system: Mycobacterium tuberculosis; experiment: Antitubercular activity against isoniazid-resistant Mycobacterium tuberculosis H37RV clinical isolate 1 assessed as growth inhibition by microdilution method; settings: H37Rv isolate 1
compound,measurement,setting,value
CC(=O)NC[C@H]1CN(c2ccc(OC[C@@H]3CN(c4ccccc4)C(=O)O3)c(F)c2)C(=O)O1,Ratio,[1],>20
same,Ratio,[2],>20
same,MIC,[3],8 µg/mL
same,MIC,[4],2 µg/mL
same,MIC,[5],4 µg/mL
same,MIC,[6],4 µg/mL
same,MIC,[7],4 µg/mL
same,MIC,[8],4 µg/mL
same,MIC,[9],8 µg/mL
CC(=O)NC[C@H]1CN(c2ccc(N3CCOCC3)c(F)c2)C(=O)O1 [LINEZOLID],MIC,[3],0.25 µg/mL
same,MIC,[4],0.25 µg/mL
same,MIC,[5],0.25 µg/mL
same,MIC,[6],1 µg/mL
same,MIC,[7],0.25 µg/mL
same,MIC,[9],0.25 µg/mL
NNC(=O)c1ccncc1 [ISONIAZID],MIC,[3],8 µg/mL
same,MIC,[4],4 µg/mL
same,MIC,[5],4 µg/mL
same,MIC,[6],2 µg/mL
same,MIC,[7],2 µg/mL
same,MIC,[8],8 µg/mL
same,MIC,[9],2 µg/mL
COc1ccc(N2C[C@@H](COc3ccc(N4C[C@H](CNC(C)=O)OC4=O)cc3F)OC2=O)cc1,Ratio,[1],>20
same,Ratio,[2],>20
same,MIC,[3],8 µg/mL
same,MIC,[4],2 µg/mL
same,MIC,[5],4 µg/mL
same,MIC,[6],4 µg/mL
same,MIC,[7],4 µg/mL
same,MIC,[8],4 µg/mL
same,MIC,[9],4 µg/mL
